Assay results taken from patent US20250099450A1, “PHARMACEUTICAL COMBINATION FOR TREATING TUMORS AND USE THEREOF” (INXMED (NANJING) CO., LTD, priority 2022, published 2025).

How the values were obtained:
[1] = tested on: Calreticulin (ICD target) in A375 cells; assay: Calreticulin immunofluorescence in A375 after FAK silencing plus Cobimetinib; assay type: cell-based; details: FAK siRNA 50 nM, then 10 nM Cobimetinib 48 hours
Method: A375 cells were transfected with control siRNA or FAK siRNA at a final concentration of 50 nM. After 24 hours, A375 cells were treated with 10 nM Cobimetinib for 48 hours and then calreticulin was detected by immunofluorescence.

[2] = tested on: CT-26 mouse colorectal cancer cell subcutaneous allograft tumor; assay: In vivo antitumor efficacy, CT-26 subcutaneous allograft tumor model (Example 3); set-up: species or system BALB/c mice; TGI (tumor growth inhibition rate): dose or concentration left out as unconfirmed; details: for TGI (tumor growth inhibition rate) / Tumor volume on day 15: 15th day after group administration; for TGI (tumor growth inhibition rate): vs control group; for Tumor volume on day 15: Cobimetinib 7.5 mg/kg ip TIW, IN10018 12.5 mg/kg po QD, PDL1 antibody 5 mg/kg ip BIW, mean ± standard error
Text: Mice: Female BALB/c mice aged 6-8 weeks were purchased from Beijing Weitong Lihua Laboratory Animal Co., Ltd. The assay began after the animals arrived and were adapted to the experimental environment. The animals were kept in IVC (independent ventilation system) cages (6 per cage) in an SPF-level animal room. All cages, bedding and drinking water must be sterilized before use. All experimenters should wear protective clothing and latex gloves when operating in the animal room. The animal information cards for each cage should indicate the number of animals in the cage, gender, strain, receipt date, dosing regimen, assay number, group and start date of the assay. Cages, feed and drinking water were changed twice a week. The breeding environment and lighting conditions are as follows:
5% CO2 incubator. Two to three times a week, routine digestion and subculture were performed with trypsin-EDTA. When the cells were in the exponential growth phase and the saturation was 80%-90%, the cells were harvested, counted, and inoculated.
0.1 mL of cell suspension containing 3×10^5 cells was subcutaneously inoculated on the right back of each mouse. When the tumor volume reached ˜58 mm^3 (10 days after cell inoculation), the mice were randomly divided into groups for drug administration according to the tumor volume.
The diameter of tumor was measured with vernier caliper, 3 times a week. The formula for calculating the tumor volume is: V=0.5×a×b^2, where a and b represent the long and short diameters of the tumor respectively.
Animals were considered dead when they died naturally or when the tumor volume was greater than 2500 mm^3. The survival rate and life cycle of the animals after administration were calculated based on this.
Statistical analysis was performed based on tumor volume and tumor weight at the end of the trial using Prism Graphpad software. Comparisons between multiple groups were analyzed using the Two-way ANOVA test, and P<0.05 was considered as having significant differences.
The survival rate of animals was analyzed using the Gehan-Breslow-Wilcoxon test, and P<0.05 was considered as having significant difference.

[3] = tested on: melanoma cells A375; assay: Cell killing (CCK8) of Cobimetinib against A375 after FAK silencing; assay type: cell-based; details: with FAK silencing (FAK siRNA) vs control siRNA, 72 h
Method: In the in vitro assay, different concentrations of Cobimetinib were given under the condition of silencing the FAK gene. In A375 cells, the cell killing curve was obtained and the IC50 value was determined. The cytotoxic effect of Cobimetinib in the control group and the FAK siRNA group was compared to explore the effect of the FAK target on the cytotoxicity of Cobimetinib. The cell killing curve of Cobimetinib at different concentrations in melanoma cells A375 under the condition of FAK gene silencing was detected in the assay and the IC50 value was determined. A 96-well cell plate was seeded with 5000 A375 cells/well, and two groups were transfected with control siRNA or FAK siRNA respectively. Cobimetinib was added 24 hours after the transfection. The highest concentration was 1 μM. A total of 6 concentrations were set for 3-fold gradient dilution. The lowest concentration of Cobimetinib was 4.115 nM. After the drug and cells were incubated for 72 hours, 10 μl CCK8 solution was added to each well and incubated at 37 degrees in a 5% carbon dioxide incubator for 2 hours. A microplate reader with the absorbance wavelength set to 450 nm was used for reading. The values read were compared to the DMSO control group and plotted using Graphpad 8.0.

[4] = tested on: endoplasmic reticulum stress-related proteins GRP78 and Phospho-eIF2α (Ser51) in A375 cells; assay: Endoplasmic reticulum stress protein expression in A375 after FAK silencing plus Cobimetinib; assay type: cell-based; details: FAK siRNA 50 nM, then Cobimetinib 6 hours
Method: A375 cells were transfected with control siRNA or FAK siRNA at a final concentration of 50 nM. After 24 hours of transfection, different concentrations of Cobimetinib were given for 6 hours. The protein expression levels of FAK and endoplasmic reticulum stress-related proteins GRP78 and Phospho-eIF2α (phosphorylated-Phospho-eIF2α) (Ser51) were detected.

[5] = tested on: colon cancer CT-26 cell line; assay: In vitro efficacy of IN10018 and HL-085 in CT26 cells (microscopy, flow cytometry); assay type: cell-based, mouse; details: 48 hours, IN10018 5 μM, HL-085 1 μM
Method: CT26 cells were cultured with RPMI 1640 (Shanghai Yuanpei, Cat No.: L210KJ, Lot No.: F210916)+10% FBS (Gibco, Cat No.: 10099-141c, Lot No.: 2158737cp) and passaged twice. When the cells were in good condition, the culture plates were placed in 24-well plates. After 24 hours of cell spreading, four groups were set up. The first group was the control group, to which culture medium was added, the second group was IN10018 at a concentration of 5 μM, the third group was HL-085 at a concentration of 1 μM, and the fourth group was IN10018 (5 μM) combined with HL-085 (1 μM). The drugs were mixed and cultured at 37° C. in a 5% CO2 incubator for 48 hours.
After 48 hours of drug action, cells were observed under a microscope and photographed to confirm the cell killing effect. Then the cells were collected for flow analysis, and the cells were washed twice with flow buffer (PBS+2% FBS) and 0.5 μl AF647. Anti-calreticulin antibody (abeam) was added to each well and mixed. The mixture was incubated at 4° C. in the dark, flow buffer was added after 20 min of incubation, the annexin staining kit (Beyotime) was used and 195 μl […] was added. After pipetting and mixing with the cells, 5 μl Annexin-V-FITC antibody was added and gently mixed. Finally, 10 μl PI dye was added and mixed. […]

| SMILES | exposure and release of the DAMPs marker calreticulin [1] | TGI (tumor growth inhibition rate) [2] [%] | Tumor volume on day 15 [2] [mm^3] | Survival rate on Day 31 ([2]; 31st day after group administration, death = natural death or tumor volume > 2500 mm^3, Cobimetinib 7.5, IN10018 12.5, PDL1 antibody 5 mg/kg) [%] | Median survival time ([2]; up to the 31st day after group administration, Cobimetinib 7.5, IN10018 12.5, PDL1 antibody 5 mg/kg) [days] | cell killing effect of cobimetinib on melanoma cells A375 [3] | endoplasmic reticulum stress of A375 [4] | cell status / cell killing effect observed under a microscope [5] |
| --- | --- | --- | --- | --- | --- | --- | --- | --- |
| O=C(c1ccc(F)c(F)c1Nc1ccc(I)cc1F)N1CC(O)([C@@H]2CCCCN2)C1 [Cobimetinib] | significantly enhance | 59.2 | 1261.3±565.4 | 16.7 | 22 | significantly enhance | Significantly Up-Regulated |  |
| O=C(NOCCO)c1cc2scnc2c(F)c1Nc1ccc(I)cc1F [HL-085] |  |  |  |  |  |  |  | poor |
| COc1cc(C(=O)NC2CCN(C)CC2)c(F)cc1Nc1ncc(C(F)(F)F)c(Oc2cccc3c2C(=O)N(C)C3)n1 [IN10018] |  | 19.9 | 2418.8±436.5 |  |  |  |  | better |
